Laboratory results taken from the NIST ThermoML archive (doi:10.1021/je9005344).
Numbers after ± are expanded uncertainties.

Conditions: 298.15 K, 101.3 kPa, Liquid; for viscosity: Capillary tube (Ostwald / Ubbelohde) method; for speed of sound: Pulse-echo method; for mass density: Vibrating tube method

SMILES: COCCO [2-methoxyethan-1-ol]
- viscosity: 1.512 ± 0.013 mPa·s
- speed of sound: 1343.5 ± 1.2 m/s
- mass density: 960.978 ± 0.23 kg/m3

SMILES: CCCCCCCCCCO [decan-1-ol]
- viscosity: 11.19 ± 0.077 mPa·s
- speed of sound: 1379.9 ± 1.2 m/s
- mass density: 826.47 ± 0.23 kg/m3

SMILES: CCCCCCO [hexan-1-ol]
- viscosity: 4.439 ± 0.033 mPa·s
- speed of sound: 1303.2 ± 1.2 m/s
- mass density: 815.265 ± 0.23 kg/m3

SMILES: CCCCCCCCO [octan-1-ol]
- viscosity: 7.143 ± 0.051 mPa·s
- speed of sound: 1347.6 ± 1.2 m/s
- mass density: 821.794 ± 0.23 kg/m3
